The source of these data is patent publication US8802694B2, “3,6-diazabicyclo[3.1.1]heptanes as neuronal nicotinic acetycholine receptor ligands” (Targacept, Inc., priority 2009, dated 2014).

One assay concerns the target T1, Rat α4β2 (Rattus norvegicus, UniProt P09483+P12390).
T1 construct: Rat cortices were obtained from Analytical Biological Services; tissue Analytical Biological Services, Incorporated (ABS, Wilmington, Del.); host or cells: rat cortex (female Sprague-Dawley)
The assay can be described thus: Competition binding to rat α4β2 receptors in rat cortical membranes. The conditions noted are these: rat cortex membranes. The protocol: Preparation of membranes from rat tissues. Rat cortices were obtained from Analytical Biological Services, Incorporated (ABS, Wilmington, Del.). Tissues were dissected from female Sprague-Dawley rats, frozen and shipped on dry ice. Tissues were stored at −20° C. until needed for membrane preparation. […] The resulting homogenate was centrifuged at 40,000 g for 20 minutes at 4° C. and the resulting pellet was resuspended in 20 volumes of ice-cold water. After 60-minute incubation at 4° C., a new pellet was collected by centrifugation at 40,000 g for 20 minutes at 4° C. The final pellet was resuspended in preparative buffer and stored at −20° C. On the day of the assay, tissue was thawed, centrifuged at 40,000 g for 20 minutes and then resuspended in PBS (Dulbecco's Phosphate Buffered Saline, Life Technologies, pH 7.4) to a final concentration of 2-3 mg protein/mL. Protein concentrations were determined using the Pierce BCA Protein Assay kit (Pierce Biotechnology, Rockford, Ill.), with bovine serum albumin as the standard.
Competition binding to receptors in membrane preparations. […] In brief, membranes were reconstituted from frozen stocks (approximately 0.2 mg protein) and incubated for 2 h on ice in […] assay buffer (PBS) in the presence of competitor compound (0.001 nM to […]) and radioligand. [^3H]-nicotine (L-(−)-[N-methyl-3H]-nicotine, 69.5 Ci/mmol, Perkin-Elmer Life Sciences) was used for human α4β2 binding studies. [^3H]-epibatidine (52 Ci/mmol, Perkin-Elmer Life Sciences) was used for binding studies at the other receptor subtypes. […] Filters were washed 3 times and the radioactivity retained was determined by liquid scintillation counting.
Binding data analysis. Binding data were expressed as percent total control binding. Replicates for each point were averaged and plotted against the log of drug concentration.

In a further assay the target is T2, α6β3β4α5 (Homo sapiens, UniProt P30926+Q15825).
T2 construct: host or cells: SH-EP1
Briefly: Competition binding to α6β3β4α5 receptors in membranes of SH-EP1/α6β3β4α5 cells ([3H]-epibatidine). The conditions noted are these: membrane competition binding.

In another assay the target is T3, Human α4β2 (Homo sapiens, UniProt P17787+P43681).
T3 construct: host or cells: SH-EP1
The assay can be described thus: Competition binding to human α4β2 receptors in membranes of SH-EP1/human α4β2 cells ([3H]-nicotine). The conditions noted are these: membrane competition binding.

Read-outs that look alike come from different tables or passages of the source.

Turning to `O=C(C1CC(F)(F)C1)N1CC2CC(C1)N2`, the Ki at Rat α4β2 (Rat α4β2 Ki) was determined as 19 nM; on α6β3β4α5 (read-out: α6β3β4α5 Ki) it was 370 nM; on Human α4β2 (Human α4β2 Ki), 16 nM.
In the case of `O=C(C1C2C3CCC(C3)C12)N1CC2CC(C1)N2` (centres unmarked), the Ki came out at 22000 nM on α6β3β4α5 (read-out: α6β3β4α5 Ki) and 1300 nM at Human α4β2 (read-out: Human α4β2 Ki).
Turning to `O=C([C@@H]1C[C@@H]2C=C[C@H]1C2)N1CC2CC(C1)N2`, the Ki at Rat α4β2 (read-out: Rat α4β2 Ki) is 210 nM; on α6β3β4α5 (read-out: α6β3β4α5 Ki), 1300 nM; at Human α4β2 (read-out: Human α4β2 Ki), 160 nM.
Turning to `CCCC(=O)N1C2CNCC1C2`, the Ki stood at 5.1 nM at Rat α4β2 (Rat α4β2 Ki), 230 nM on α6β3β4α5 (read-out: α6β3β4α5 Ki) and 9.9 nM on Human α4β2 (Human α4β2 Ki).
For `O=C(CCC(F)(F)F)N1C2CNCC1C2`, the Ki at Rat α4β2 (Rat α4β2 Ki) was 72 nM; on α6β3β4α5 (read-out: α6β3β4α5 Ki), 1500 nM; at Human α4β2 (read-out: Human α4β2 Ki) it was 180 nM.
With `C/C=C/CCC(=O)N1C2CNCC1C2`, the values for the inhibitory constant (Ki) on Rat α4β2 (Rat α4β2 Ki), at α6β3β4α5 (read-out: α6β3β4α5 Ki) and at Human α4β2 (Human α4β2 Ki) were 15 nM, 400 nM and 53 nM, respectively.
In the same order, the values of `O=C(CC1CCC1)N1C2CNCC1C2` are 30 nM, 360 nM and 53 nM.
Take `CC1(C)CC1C(=O)N1C2CNCC1C2` (centres unmarked): the Ki was determined as 45 nM at Rat α4β2 (Rat α4β2 Ki), 800 nM at α6β3β4α5 (read-out: α6β3β4α5 Ki) and 75 nM on Human α4β2 (Human α4β2 Ki).
Consider `CCC1(CC)CC1C(=O)N1C2CNCC1C2` (centres unmarked), for which the inhibitory constant (Ki) at α6β3β4α5 (read-out: α6β3β4α5 Ki) was determined as 4400 nM; at Human α4β2 (read-out: Human α4β2 Ki), 850 nM.
The like results for `C[C@@H]1C(C(=O)N2C3CNCC2C3)[C@@H]1C` (some centres unmarked) were, in that order, 2400 nM and 610 nM.
With `O=C([C@@H]1C[C@H]1c1ccccc1)N1C2CNCC1C2`, the Ki is 51 nM on Rat α4β2 (Rat α4β2 Ki), 350 nM at α6β3β4α5 (read-out: α6β3β4α5 Ki) and 30 nM on Human α4β2 (Human α4β2 Ki).
Turning to `O=C(C1CC12CCC2)N1C2CNCC1C2` (centres unmarked), the Ki on Rat α4β2 (Rat α4β2 Ki) was 32 nM; at α6β3β4α5 (read-out: α6β3β4α5 Ki), 340 nM; on Human α4β2 (Human α4β2 Ki) it was 38 nM.
Turning to `O=C(C1CC12CCCC2)N1C2CNCC1C2` (centres unmarked), the values for the inhibition constant (Ki) at α6β3β4α5 (read-out: α6β3β4α5 Ki) and on Human α4β2 (read-out: Human α4β2 Ki) were 610 nM and 280 nM, respectively.
For the molecule `O=C(C1C2CCCCC21)N1C2CNCC1C2` (centres unmarked), the Ki on α6β3β4α5 (read-out: α6β3β4α5 Ki) is 6400 nM; at Human α4β2 (read-out: Human α4β2 Ki), 310 nM.
Take `CCC[C@H]1C[C@H]1C(=O)N1C2CNCC1C2`: the Ki on α6β3β4α5 (read-out: α6β3β4α5 Ki) was found to be 1100 nM; at Human α4β2 (read-out: Human α4β2 Ki), 570 nM.
As to `CC1CC(C(=O)N2C3CNCC2C3)C1` (centres unmarked), the Ki on Rat α4β2 (Rat α4β2 Ki) turned out to be 58 nM; on α6β3β4α5 (read-out: α6β3β4α5 Ki), 770 nM; at Human α4β2 (Human α4β2 Ki), 49 nM.
The like results for `O=C(C1CC(F)(F)C1)N1C2CNCC1C2` were, in that order, 16 nM, 510 nM and 54 nM.
With `O=C(C1CC2C=CC1C2)N1C2CNCC1C2` (centres unmarked), the Ki on Rat α4β2 (read-out: Rat α4β2 Ki) worked out at 380 nM; at α6β3β4α5 (read-out: α6β3β4α5 Ki), 900 nM; on Human α4β2 (read-out: Human α4β2 Ki), 200 nM.
With `O=C(C1C2C3CCC(C3)C12)N1C2CNCC1C2` (centres unmarked), the results for the Ki at α6β3β4α5 (read-out: α6β3β4α5 Ki) and at Human α4β2 (read-out: Human α4β2 Ki) were 100000 nM and 1900 nM, respectively.
Turning to `O=C([C@@H]1C[C@H]2C=C[C@H]1C2)N1C2CNCC1C2`, the figures for the Ki on α6β3β4α5 (read-out: α6β3β4α5 Ki) and at Human α4β2 (read-out: Human α4β2 Ki) were 1300 nM and 300 nM, respectively.
In the same order, the values of `C[C@H]1C[C@@H]1C(=O)N1C2CNCC1C2` are 31000 nM and 210 nM.
In the same order, the values of `C[C@@H]1C[C@@H]1C(=O)N1C2CNCC1C2` are 30000 nM and 820 nM.
On to `C[C@@H]1C[C@H]1C(=O)N1C2CNCC1C2`, for which the values for the Ki at Rat α4β2 (Rat α4β2 Ki), at α6β3β4α5 (read-out: α6β3β4α5 Ki) and on Human α4β2 (Human α4β2 Ki) were 50 nM, 1700 nM and 9.2 nM, respectively.
For the molecule `C[C@H]1C[C@H]1C(=O)N1C2CNCC1C2`, the Ki was determined as 180 nM on Rat α4β2 (read-out: Rat α4β2 Ki), 1800 nM on α6β3β4α5 (read-out: α6β3β4α5 Ki) and 9.6 nM at Human α4β2 (Human α4β2 Ki).
In the case of `O=C([C@@H]1C[C@@H]1F)N1CC2CC(C1)N2`, the Ki on Rat α4β2 (Rat α4β2 Ki) was 0.86 nM; on α6β3β4α5 (α6β3β4α5 Ki), 280 nM; on Human α4β2 (Human α4β2 Ki), 1.8 nM.
Regarding `O=C([C@@H]1C[C@H]1F)N1CC2CC(C1)N2`, the figures for the Ki at Rat α4β2 (Rat α4β2 Ki), on α6β3β4α5 (α6β3β4α5 Ki) and on Human α4β2 (read-out: Human α4β2 Ki) were 0.54 nM, 91 nM and 1 nM, respectively.
As to `C[C@H]1C[C@H]1C(=O)N1CC2CC(C1)N2`, the values for the Ki on Rat α4β2 (Rat α4β2 Ki), at α6β3β4α5 (α6β3β4α5 Ki) and at Human α4β2 (Human α4β2 Ki) were 0.39 nM, 58 nM and 1.8 nM, respectively.
On to `C[C@@H]1C[C@H]1C(=O)N1CC2CC(C1)N2`, for which the values for the Ki at Rat α4β2 (Rat α4β2 Ki), at α6β3β4α5 (α6β3β4α5 Ki) and on Human α4β2 (read-out: Human α4β2 Ki) were 0.08 nM, 95 nM and 1 nM, respectively.
Turning to `[2H]C1([2H])C([2H])([2H])C1([2H])C(=O)N1CC2CC(C1)N2`, the Ki was 0.24 nM at Rat α4β2 (Rat α4β2 Ki), 120 nM on α6β3β4α5 (α6β3β4α5 Ki) and 0.49 nM on Human α4β2 (Human α4β2 Ki).
